Assay results: patent publication US10130693B2, “Peptides, combination of peptides and scaffolds for use in immunotherapeutic treatment of various cancers” (Immatics Biotechnologies GmbH, priority 2015, dated 2018)

system: HLA-A*24; assay: MHC binding assay, UV-ligand exchange with beta2m ELISA (exchange yield), HLA-A*24; design: species or system human; settings: binding to HLA-A*24, UV-ligand exchange
Excerpt: Candidate peptides for T cell based therapies according to the present invention were further tested for their MHC binding capacity (affinity). The individual peptide-MHC complexes were produced by UV-ligand exchange, where a UV-sensitive peptide is cleaved upon UV-irradiation, and exchanged with the peptide of interest as analyzed. Only peptide candidates that can effectively bind and stabilize the peptide-receptive MHC molecules prevent dissociation of the MHC complexes. To determine the yield of the exchange reaction, an ELISA was performed based on the detection of the light chain (β2m) of stabilized MHC complexes. The assay was performed as generally described in Rodenko et al. (Rodenko et al., 2006).
96 well MAXISorp plates (NUNC) were coated over night with 2 ug/ml streptavidin in PBS at room temperature, washed 4× and blocked for 1 h at 37° C. in 2% BSA containing blocking buffer. […] Peptide-MHC monomers of the UV-exchange reaction were diluted 100 fold in blocking buffer. Samples were incubated for 1 h at 37° C., washed four times, incubated with 2 ug/ml HRP conjugated anti-β2m for 1h at 37° C., washed again and detected with TMB solution that is stopped with […]. Absorption was measured at 450 nm. Candidate peptides that show a high exchange yield (preferably higher than 50%, most preferred higher than 75%) are generally preferred for a generation and production of antibodies or fragments thereof, and/or T cell receptors or fragments thereof, as they show sufficient avidity to the MHC molecules and prevent dissociation of the MHC complexes.

Peptide exchange (MHC class I binding score, peptide exchange yield)	Substance
++++ (>=75% = ++++)	265 (SYLNEAFSF; listed as Homo sapiens) [compound 265]
+++ (50%-75% = +++)	266 (KYTDWTEFL; listed as Homo sapiens) [compound 266]
++ (20%-49% = ++)	267 (SFLNIEKTEILF; listed as Homo sapiens) [compound 267]
++ (20%-49% = ++)	268 (IFITKALQI; listed as Homo sapiens) [compound 268]
+++ (50%-75% = +++)	270 (YYSQESKVLYL; listed as Homo sapiens) [compound 270]
++++ (>=75% = ++++)	272 (RYVFPLPYL; listed as Homo sapiens) [compound 272]
++++ (>=75% = ++++)	275 (KYGTLDVTF; listed as Homo sapiens) [compound 275]
++++ (>=75% = ++++)	276 (QYLDVLHAL; listed as Homo sapiens) [compound 276]
+++ (50%-75% = +++)	279 (VWLPASVLF; listed as Homo sapiens) [compound 279]
+++ (50%-75% = +++)	283 (EYQEIFQQL; listed as Homo sapiens) [compound 283]
+++ (50%-75% = +++)	284 (DYLKDPVTI; listed as Homo sapiens) [compound 284]
++++ (>=75% = ++++)	286 (SYGTILSHI; listed as Homo sapiens) [compound 286]
+++ (50%-75% = +++)	287 (IYNPNLLTASKF; listed as Homo sapiens) [compound 287]
++++ (>=75% = ++++)	289 (FFHEGQYVF; listed as Homo sapiens) [compound 289]
++++ (>=75% = ++++)	290 (KYGDFKLLEF; listed as Homo sapiens) [compound 290]
++++ (>=75% = ++++)	293 (VYPHFSTTNLI; listed as Homo sapiens) [compound 293]
++++ (>=75% = ++++)	296 (SYQVIFQHF; listed as Homo sapiens) [compound 296]
+++ (50%-75% = +++)	299 (KYQYVLNEF; listed as Homo sapiens) [compound 299]

Peptide exchange (MHC class I binding score, peptide exchange yield)	Substance
+++ (50%-75% = +++)	300 (TYPSQLPSL; listed as Homo sapiens) [compound 300]
++++ (>=75% = ++++)	301 (KFDDVTMLF; listed as Homo sapiens) [compound 301]
+++ (50%-75% = +++)	302 (LYLPVHYGF; listed as Homo sapiens) [compound 302]
+++ (50%-75% = +++)	303 (LYSVIKEDF; listed as Homo sapiens) [compound 303]
++++ (>=75% = ++++)	305 (NYENKQYLF; listed as Homo sapiens) [compound 305]
+++ (50%-75% = +++)	307 (GYAFTLPLF; listed as Homo sapiens) [compound 307]
+++ (50%-75% = +++)	308 (TFDGHGVFF; listed as Homo sapiens) [compound 308]
++++ (>=75% = ++++)	311 (EYLQNLNHI; listed as Homo sapiens) [compound 311]
+++ (50%-75% = +++)	312 (SYTSVLSRL; listed as Homo sapiens) [compound 312]
++++ (>=75% = ++++)	313 (KYTHFIQSF; listed as Homo sapiens) [compound 313]
+++ (50%-75% = +++)	317 (VFDTSIAQLF; listed as Homo sapiens) [compound 317]
+++ (50%-75% = +++)	318 (TYSNSAFQYF; listed as Homo sapiens) [compound 318]
+++ (50%-75% = +++)	343 (NYLGGTSTI; listed as Homo sapiens) [compound 343]
+++ (50%-75% = +++)	348 (IYLEHTESI; listed as Homo sapiens) [compound 348]
+++ (50%-75% = +++)	352 (QYGGDLTNTF; listed as Homo sapiens) [compound 352]
++++ (>=75% = ++++)	357 (QFITSTNTF; listed as Homo sapiens) [compound 357]
+++ (50%-75% = +++)	361 (TYADIGGLDNQI; listed as Homo sapiens) [compound 361]

Continued, substance first:

Substance	Peptide exchange (MHC class I binding score, peptide exchange yield)
269 (QYPYLQAFF; listed as Homo sapiens) [compound 269]	+++ (50%-75% = +++)
271 (RFLMKSYSF; listed as Homo sapiens) [compound 271]	++++ (>=75% = ++++)
273 (IYGEKLQFIF; listed as Homo sapiens) [compound 273]	+++ (50%-75% = +++)
274 (KQLDIANYELF; listed as Homo sapiens) [compound 274]	++++ (>=75% = ++++)
280 (TYNPNLQDKL; listed as Homo sapiens) [compound 280]	++++ (>=75% = ++++)
281 (NYSPGLVSLIL; listed as Homo sapiens) [compound 281]	+++ (50%-75% = +++)
282 (NYLVDPVTI; listed as Homo sapiens) [compound 282]	+++ (50%-75% = +++)
285 (VYVGDALLHAI; listed as Homo sapiens) [compound 285]	+++ (50%-75% = +++)
288 (VYPDTVALTF; listed as Homo sapiens) [compound 288]	++ (20%-49% = ++)
291 (YYLGSGRETF; listed as Homo sapiens) [compound 291]	+++ (50%-75% = +++)
292 (FYPQIINTF; listed as Homo sapiens) [compound 292]	++++ (>=75% = ++++)
294 (RFPVQGTVTF; listed as Homo sapiens) [compound 294]	+++ (50%-75% = +++)
295 (SYLVIHERI; listed as Homo sapiens) [compound 295]	+++ (50%-75% = +++)
297 (TYIDTRTVF; listed as Homo sapiens) [compound 297]	++++ (>=75% = ++++)
298 (AYKSEVVYF; listed as Homo sapiens) [compound 298]	++++ (>=75% = ++++)
304 (EYNEVANLF; listed as Homo sapiens) [compound 304]	+++ (50%-75% = +++)
306 (VYPAEQPQI; listed as Homo sapiens) [compound 306]	+++ (50%-75% = +++)
309 (KYYRQTLLF; listed as Homo sapiens) [compound 309]	++ (20%-49% = ++)
310 (IYAPTLLVF; listed as Homo sapiens) [compound 310]	+++ (50%-75% = +++)
314 (RYFKGDYSI; listed as Homo sapiens) [compound 314]	+++ (50%-75% = +++)
315 (FYIPHVPVSF; listed as Homo sapiens) [compound 315]	+++ (50%-75% = +++)
316 (VYFEGSDFKF; listed as Homo sapiens) [compound 316]	+++ (50%-75% = +++)
319 (KYSDVKNLI; listed as Homo sapiens) [compound 319]	++++ (>=75% = ++++)
341 (SYLTQHQRI; listed as Homo sapiens) [compound 341]	+++ (50%-75% = +++)
342 (NYAFLHRTL; listed as Homo sapiens) [compound 342]	+++ (50%-75% = +++)
347 (VYAEVNSL; listed as Homo sapiens) [compound 347]	+++ (50%-75% = +++)
355 (IYVTGGHLF; listed as Homo sapiens) [compound 355]	+++ (50%-75% = +++)
